# From paper PMC3871595, “Structure Based Identification and Characterization of Flavonoids That Disrupt Human Papillomavirus-16 E6 Function” (PLoS ONE, 2013)
# Entries after “also recorded” stand apart in the source; their conditions may differ.
# How the values were obtained:
# MBP-E6 = target: T1, MBP-E6 (Human papillomavirus type 16, UniProt P03126); test: thermal shift (Sypro Orange) assay; type: binding, HPV-16; settings: versus DMSO; for effect on Tm of MBP-E6: 5-150 µM tested
# T1 construct: made in house; host or cells: E. coli BL21DE(3)
# T1 sequence (P03126 whole entry): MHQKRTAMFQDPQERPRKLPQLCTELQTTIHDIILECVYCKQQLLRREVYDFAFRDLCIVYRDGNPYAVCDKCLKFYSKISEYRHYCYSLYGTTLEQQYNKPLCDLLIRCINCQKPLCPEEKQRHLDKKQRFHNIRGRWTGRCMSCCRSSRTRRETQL
# Protocol: A thermal shift assay was used to assess compound binding to HPV E6. In this reaction, protein denaturation is measured by an increase in fluorescence from Sypro Orange as it binds to the newly exposed hydrophobic surfaces on the protein [48]. A protein stability curve is created as a measure of the rate of protein unfolding. The relative fluorescence is plotted against temperature and the melting temperature (Tm) is determined by calculating the temperature of peak fluorescence. Ligand binding can stabilize the protein and increase the Tm. The thermal profile of MBP-E6 proteins was investigated to determine if the flavonoid derivatives could stabilize MBP-E6 protein structure during heat-induced unfolding. […] The change in Tm (∆Tm) was plotted for each compound and compared to DMSO (Figure 10F,G ).
# MBP-16E6 DNA, a kind gift from G. Travé [58], was transformed into BL21DE(3) E. coli. Protein expression was performed by inoculation of a 1 mL starter culture in 100 mL of Turbo-Broth containing 0.2 % lactose, 0.05% glucose and 0.6% glycerol at 20°C for 24 hrs. Cells were lysed in 50 mM Tris HCl pH 6.8, 300 mM NaCl, 0.1 % (v/v) NP-40, 2 mM DTT and 1x protease inhibitor cocktail (EDTA-free, Roche) and sonicated as described before. Cell lysate was cleared by centrifugation at 15000xg, 4°C for 30 min and equilibrated with amylose resin beads (New England Biolabs, Inc.) by inversion for 3 hrs at 4°C. Bound beads were washed one time in lysis buffer and four times with wash buffer (50 mM Tris-HCl pH 6.8, 400 mM NaCl, 2 mM DTT, 1x protease inhibitor cocktail). Bound MBP-E6 proteins were eluted using a final concentration of 20 mM maltose in 5 bed volumes of wash buffer. All steps were performed at 4°C. Protein concentration was measured by BCA (BioRad). Thermostability of MBP-E6 proteins was analyzed at a final concentration of 1 µM in reaction buffer (50 mM TrisHCl pH 6.8, 400 mM NaCl, 2 mM DTT). MBP-E6 proteins were equilibrated with CAF-8 (5 µM-150 µM), CAF-24 (5 µM-150 µM), CAF-26 (5 µM-150 µM) or DMSO for 30 min in reaction buffer. Sypro Orange, a hydrophobic fluorescent dye, was added at the end of the incubation period at a final concentration of 5X. The final DMSO concentration (1.8% v/v) was kept constant across the concentration range. Fluorescence was measured using the FRET channel of CFX96 Real-Time PCR thermal cycler (BioRad) over a temperature range of 25°C to 95°C. Temperature increments were set to 0.5°C for 30 sec followed by plate reading. Melt curves were determined in triplicate and repeated four times. Melt curves represent the relative fluorescence of the 1st derivative of four experiments. Melting temperature (Tm) was calculated by CFX manager software. The average melting temperature of the triplicate was used to calculate the ∆Tm for each experiment. ∆Tm values are expressed as the change vs. DMSO.
# [1] = target: E6 fused to a GB1-fusion tag (GBF) (Human papillomavirus type 16, UniProt P03126); test: surface plasmon resonance direct binding, immobilized GBF-E6; design: species or system HPV-16; settings: 1.6-12.5 µM
# Chain of E6 fused to a GB1-fusion tag (GBF) (P03126 whole entry, the tested form may be a part): as the sequence (P03126 whole entry) above
# Protocol: A reference cell with immobilized GBF was performed simultaneously for background subtraction. […] While direct binding was observed, the data could not be properly fit to determine binding affinity.
# SPR analysis was performed on a Biacore 3000 instrument. Immobilized GBFE6 [43] was diluted to 30μg/mL in 10 mM sodium acetate, pH 4.0 and 5.0 and immobilized onto the dextran matrix of a CM5 sensor chip (Biacore) using the amine coupling method. All binding experiments were performed at 25 °C in 50 mM phosphate (pH 6.5) containing 200 mM NaCl. Pulses of 10 mM glycine (pH 3.0) were used to regenerate the surfaces between injections. […] SPR data were analyzed using BIAevaluation 4.1 software (Biacore).
# [2] = system: E6/E7 immortalized human foreskin keratinocytes; test: p53/p21 immunoblot analysis in E6/E7 immortalized HFKs; type: cell-based; settings: 40 hours
# Protocol: Each compound was used to treat primary HFKs or HFKs immortalized through the over-expression of HPV16 E6 and E7 proteins.
# (§1) 20,000 cells per cm^2 were plated in 6-well dishes. Cells were incubated for 24 hours at which time fresh media and compound were added. After 40 hours, cells were harvested, washed with cold PBS, and lysed in RIPA buffer with protease inhibitor. Each sample was separated on a 12% SDS-page gel, transferred to Immobilon-P membrane (Millipore) and blotted for the p53 (DO-1, Santa Cruz), p21 (c-19, Santa Cruz), and actin (A2066, Sigma). Protein quantification was performed with the Fujifilm LAS-4000 Multifunctional Imaging System. The signal intensity was measured for each band on an immunoblot, normalized to the loading control, and the fold increase was determined in relation to the appropriate DMSO treated control. RNA was isolated from these cells using Trizol Reagent (Invitrogen 15596-026). cDNA was generated using the Improm-II Reverse Transcription System (Promega A3801). qPCR was performed as described in the protocol for SsoFast EvaGreen supermix (BioRad 172-5023) using an BioRad CFX96 real-time PCR machine. Melting curves for each reaction were obtained. Each sample was assayed in triplicate and every plate contained a 5-point cDNA dilution course to calculate amplification efficiency for each primer pair. The Pfaffl method was used to determine the change in transcript levels relative to the DMSO and normalized to GAPDH.
# Caski cells = test: p53/p21 immunoblot analysis in Caski cells; type: cell-based, human; settings: 40 hours
# Protocol: Caski cells, which are derived from an HPV-16 infected cervical carcinoma and express HPV-16 E6 and E7, were used to determine whether these compounds interfere with HPV-16 E6 function. Inhibition of E6 should block its ability to promote the degradation of p53 thereby increasing the levels of p53. […] These compounds were also assayed in telomerase immortalized human retinal epithelial cells (RPE-1). […] If the elevation in p53 is dependent on the inhibition of E6 by these compounds, p53 should not increase in the RPE-1 cells.
# as §1
# caspases 3 and 7 = test: Caspase-Glo 3/7 apoptosis assay; type: cell-based, human; settings: 4 – 48 hours
# Protocol: This was specific to Caski cells and was not observed in RPE-1, HeLa cells, or the HPV negative control cell lines C33a and HaCat (Figures S2A,B ). […] As observed in the viability assay, this occurred in both the HPV positive and negative cell lines. […] These cell lines were also assayed for apoptosis.
# For cell viability, 12,000 cells per cm^2 were plated in 96-well dishes 24 hours prior to drug addition. Fresh media and compound were added. Plates were read after 72-96 hours. Relative cell viability was assayed as directed in the Celltiter 96 AQueous one solution assay (Promega). For caspase activity, plates were assayed after 4, 8, 12, 24, or 48 hours as described for the Caspase-Glo 3/7 assay (Promega).
Structure (SMILES),effect on Tm of MBP-E6 (MBP-E6),direct binding to E6 (SPR response) [1],p21 protein levels [2],p53 protein levels [2],p21^Cip1/Waf1 protein levels (Caski cells),p53 protein levels (Caski cells),caspase 3 and 7 activity (caspases 3 and 7),"shift of MBP-E6 Tm (MBP-E6; at 25, 50 and 150 µM) [°C]"
"O=c1cc(-c2ccc(O)c(O)c2)oc2cc(O)cc(O)c12 [luteolin, reference compound]",no effect on the Tm of MBP-E6; also recorded: did not shift the Tm of MBP-E6,directly binds to E6 protein,increased p53 and p21 protein levels,increased p53 and p21 protein levels,concomitant induction,increased p53 levels,did not observe increased caspase activity,
COc1cccc(-c2cc(=O)c3cc(-c4nnn[nH]4)ccc3o2)c1 [CAF-24],about 1 °C,,increased p53 and p21 protein levels,increased p53 and p21 protein levels,concomitant induction,increased p53 levels,did not observe increased caspase activity,~1
